The numbers were not newly measured in patent publication US20230149600A1, “COLLAGEN-BASED DEVICE HAVING ANTIFUNGAL PROPERTIES” (AROA BIOSURGERY LIMITED, priority 2016, published 2023), which cites them from elsewhere.

The subject of one series is Candida albicans. Particulars: 5% (50 mg/mL) doxycycline solution.
For a further series, the system named is C. albicans biofilms. The conditions noted are these: doxycycline concentrations >0.512 mg/mL; not correlated with fungicidal efficacy.
Another series concerns C. albicans. Particulars: 20 strains of C. albicans.
The test system of series [1] is fungal spores of the genera Aspergillus, Penicillium and Curvularia. Particulars: called "moderate" activity.

As for Doxycycline, the “antifungal effect relative to other solutions” value in the series on Candida albicans was “more active than a 17% EDTA solution but less active than a 2.5% NaOCl solution or a 0.2% chlorhexidine gluconate solution”. In addition, the “reduction in metabolic activity of C. albicans biofilms” value in the series on C. albicans biofilms is not below 80%. In the series on C. albicans, the MIC range was 640 to 1280 mg/L. Also, in series [1], the “inhibition of fungal spore germination” value is on record as 50-70%.
